Here are results for 6 compounds from patent publication US9109045B2, “Mass producing growth factor using adipose derived adult stem cells” (PROSTEMICS CO., LTD., priority 2006, dated 2015).

In one series the test system is keratinocytes. Description: Defensive effect against exposure of keratinocytes to UV light (cell viability). The class given is cell-based. The note with it: UV light 40 W double lamp 8 minutes, viability after 24 hours, 2.5 cc medium in 5 cc KGM or 2 uM retinol. How it is done:
The defensive effect of growth factors secreted from adipose-derived stem cells against the exposure of keratinocytes UV light was tested in the following manner. Keratinocytes were dispensed into a 6-well plate at a suitable cell concentration in KGM (karatinocyte growth medium; Clonetics.) and incubated in a 5% carbon dioxide incubator at 37° C. To the medium, 2.5 cc of 100% ADSC 3-passage 3-day cultured medium was added to adjust the KGM to 5 cc. Also, 2 uM retinol was added to 5 cc of KGM. Also, as a negative control group, 5 cc of KGM alone was administered to keratinocytes. Each of the test samples was stabilized for 4 hours, such that the raw materials were sufficiently dispersed. After that, each of the test samples was irradiated with UV light using a 40 W double lamp for 8 minutes in an aseptic laboratory. After 24 hours, the UV defense function of the test sample was measured by determining the viability of the cells in comparison with the negative control group, which was untreated with the culture medium or retinol and irradiated with UV light for 8 minutes.

Series [1] has as its system adipose-derived stem cells. Description: Growth factor secretion (ELISA) of adipose-derived stem cells under chemical stimulation with vitamins. The class given is cell-based, human. The settings on record: for optimal concentration for synthesis of growth factors: added to serum-free culture medium of adipose-derived stem cells; for TGF β-1 expression / protein levels increased / VEGF expression / protein levels increased / bFGF expression / protein levels increased: chemical stimulation only, vitamin(s) at optimal concentration in serum-free medium, more than 48 hours, compared with control group. The procedure:
In order to examine whether chemical stimulation using a vitamin promotes the synthesis and secretion of growth factors, in the present invention, adipose-derived stem cells were cultured in vitro using serum media and then using serum-free media as described above.
Preferably, after vitamin is added to the culture medium, the culture is incubated for more than 48 hours. When a mixture of vitamins is used, the optimal concentrations of vitamins are the same as above.
Specifically, 1 ml of the culture medium obtained by culturing adipose-derived stem cells to passage 3 in the conditions of Example 1-2 was centrifuged at 1200 g for 5 minutes, and then filtered through a […] filter to remove cell residue. […] Then, the concentration of each of growth factors VEGF, bFGF and TGF β-1 secreted in the culture medium was measured using a sandwich ELISA kit (Quantikine Human FGF basic Immunoassay, R&D systems).
To examine the concentrations of optimally diluted growth factors, the culture medium was serially diluted at the same concentration ratio with a calibration dilution in the kit, the concentration at the absorbance included in the range of the standard curve was determined, and the values included in the range of the standard curve were plotted as data. […] of each growth factor-containing culture media and standard solutions of growth factors was placed in each well coated with an antibody to each of the growth factors (Quantikine Human FGF basic Immunoassay, R&D systems) and was cultured at room temperature for 2 hours. After completion of the antigen-antibody binding reaction, each well was washed four times with wash buffer, and […] of a solution (Quantikine Human FGF basic Immunoassay, R&D systems), containing a secondary antibody to each of the growth factors, was placed in each well, followed by culture at room temperature for 2 hours. After completion of the second antibody binding reaction, each well was washed four times with wash buffer, […] of a color-developing reagent (tetramethylbenzidine, R&D systems) was added to each well, and then the absorbance of the medium was measured at 450 nm with an ELISA reader.
Adipose tissue-derived stem cells were cultured to passage 3 as described in Example (1-2), and when the cultured cells reached a confluence of 80%, the cells were collected with trypsin/EDTA. Then, the cells were accurately dispensed into a 6-well plate at a density of 25,000 cells/well. […]
Cells were cultured in this medium.
The cells were cultured in the above medium in a 5% carbon dioxide incubator at 37° C. for more than 48 hours, and then 200 μl of the culture medium supernatant was centrifuged at 3,000 rpm and filtered through 0.22-μm filter paper. Then, the concentrations of bFGF, VEGF and TGF β-1 in the filtrate were measured by the enzyme-linked immunosorbent assay (ELISA) of Example 2.
As a control group, a normal medium, was used, which was not subjected to physical stimulation or chemical stimulation. The increase in growth factors was compared between the control group and the culture medium subjected to physical stimulation and chemical stimulation.
In a culture process, cells were added to a serum-free medium prepared by adding a Ham's F-12 nutrient mixture to DMEM not containing a pH indicator such as phenol red, at a ratio of 1:1, and adding thereto 2 mM L-glutamine, 1 mM sodium pyruvate and 0.17% sodium bicarbonate. Then, the cells were cultured in a 5% carbon dioxide incubator at 37° C. for more than 48 hours. Then, 200 μl of the culture medium supernatant was centrifuged at 3,000 rpm, and then filtered through 0.22-μm filter paper. Then, the concentrations of bFGF, VEGF and TGF β-1 were measured by the enzyme-linked immunosorbent assay (ELISA) of Example 2.
The case where physical stimulation is used in combination with chemical stimulation will now be described.
For VEGF, a medium was irradiated with UV light and then subjected to scratch stimulation. […]

Series [2] concerns adipose-derived stem cells.
A further series has as its system fibroblast cells. Description: Cell proliferation potential: stem cell culture medium vs recombinant growth factor-containing media. The format is cell-based, human. The settings on record: 5000 cells/well seeded; rFGF 50 ng, rVEGF 500 ng in normal media; stem cell medium at 100%. The procedure:
Stem cells isolated from adipose tissue were cultured to passage-3 as described in Example (1-2), and then 10^6 cells of the stem cells were seeded into a T175 flask (area: 175 cm^2; volume: 500 ml) and cultured for 3 days. The culture medium was collected, and added at a concentration of 100% to a 6-well plate in which passage-4 fibroblast cells from the skin tissue of a child were dispensed at a density of 5000 cells/well. For the control group, a medium containing the same concentrations of recombinant growth factors VEGF and bFGF (Santa Cruz.) expressed in E. coli was used. Cell proliferation potential was compared between the adipose-derived stem cell culture medium and the recombinant growth factor-containing culture medium using a cell viability measurement kit.

“And” between values parts separate entries of the source, which are not always exact repeats. Equal values may be shown once. Read-outs that look alike come from different tables or passages of the source.

`CC1=C(/C=C/C(C)=C/C=C/C(C)=C/CO)C(C)(C)CCC1` [Retinol]: the Defensive effect in the series with keratinocytes and with keratinocytes (listed as retinol) was 54% throughout.
Turning to `Cc1cc2nc3c(=O)[nH]c(=O)nc-3n(C[C@H](O)[C@H](O)[C@H](O)CO)c2cc1C` [vitamin B, riboflavin], in series [1], the “optimal concentration for synthesis of growth factors” value (“optimal concentration for synthesis” below) lay in the range of 50 to 100 µM; the “TGF β-1 expression / protein levels increased” value was 1.56 times; the “VEGF expression / protein levels increased” value was 1.68 times and 1.56 times; the “bFGF expression / protein levels increased” value turned out to be 1.33 times.
Take `O=C1O[C@H]([C@@H](O)CO)C(O)=C1O` [vitamin C]: the “cytotoxicity by MTT assay” value in series [2] (at the optimal concentrations) was “no cytotoxicity occurred”. In series [1], the “optimal concentration for synthesis” value was in the range of 10 to 100 µM, the “TGF β-1 expression / protein levels increased” value is 1.20 times, the “VEGF expression / protein levels increased” value is on record as 1.68 times and the “bFGF expression / protein levels increased” value amounted to 2.33 times.
For the compound “rFGF: recombinant growth factor bFGF (Santa Cruz) expressed in E. coli”, the “cell proliferation potential, Cells” value with fibroblast cells stood at 8215.3 Cells.
On to vitamin A, for which, in series [2], the “cytotoxicity by MTT assay” value is “no cytotoxicity occurred”. In series [1], the “optimal concentration for synthesis” value is 2 to 5 µM and 2 to 10 µM; the “TGF β-1 expression / protein levels increased” value is 1.20 times; the “VEGF expression / protein levels increased” value is on record as 1.59 times; the “bFGF expression / protein levels increased” value was found to be 1.62 times.
Turning to vitamin D, in series [1], the “optimal concentration for synthesis” value is 5 to 10 µM, the “TGF β-1 expression / protein levels increased” value is reported as 1.16 times, the “VEGF expression / protein levels increased” value amounted to 1.30 times and the “bFGF expression / protein levels increased” value is recorded as 2.80 times.
